In ChEMBL document CHEMBL4390686, “Design, Synthesis, and Pharmacokinetic Evaluation of Phosphate and Amino Acid Ester Prodrugs for Improving the Oral Bioavailability of the HIV-1 Protease Inhibitor Atazanavir” (J Med Chem, 2019):
In brackets after ≈: the same amount, converted by molar mass.

Key:
[1] = physchem; conditions: phosphate buffer, pH 6.5
Description: Aqueous solubility of the compound in pH 6.5 phosphate buffer by RP-UPLC analysis

[2] = rat, in vivo, po, 3 mg/kg
Description: AUClast in cannulated Sprague-Dawley rat assessed as atazanavir level at 3 mg/kg equiv of atazanavir administered orally by UPLC/MS/MS analysis

[3] = Prodrug conversion assessed as recombinant human intestinal alkaline phosphatase-mediated compound dephosphorylation by measuring half life by UPLC-MS/MS analysis; type: ADME; conditions: isolated protein
[4] = rat, in vivo, po, 3 mg/kg; remark: listed apart in the source
[5] = physchem; conditions: 30% CH3CN/acetate buffer, pH 4
Description: Half life in pH 4 30%CH3CN/acetate buffer at 50 mM by RP-UPLC analysis

[6] = physchem; conditions: 30% CH3CN/phosphate buffer, pH 6.5
Description: Half life in pH 6.5 30%CH3CN/phosphate buffer at 50 mM by RP-UPLC analysis

[7] = Prodrug conversion in cannulated Sprague-Dawley rat plasma assessed as atazanavir formation at 3 mg/kg equiv of atazanavir administered orally by UPLC/MS/MS analysis; type: ADME, organism-based; conditions: in vivo, po
[8] = physchem; conditions: acetate buffer, pH 4
Description: Aqueous solubility of the compound in pH 4 acetate buffer by RP-UPLC analysis

[9] = Half life in pH 2 30%CH3CN solution at 50 mM by RP-UPLC analysis; type: physicochemical
[10] = rat, in vivo, po, 3 mg/kg; remark: listed apart in the source
[11] = physchem; conditions: 30% CH3CN/HCl buffer, pH 1
Description: Half life in pH 1 30%CH3CN/HCl buffer at 50 mM by RP-UPLC analysis

[12] = Prodrug conversion assessed as recombinant rat intestinal alkaline phosphatase-mediated compound dephosphorylation by measuring half life by UPLC-MS/MS analysis; type: ADME
[13] = physchem; conditions: HCl buffer, pH 1
Description: Aqueous solubility of the compound in pH 1 HCl buffer by RP-UPLC analysis

[14] = test system: Human immunodeficiency virus 1
Description: Antiviral activity against HIV1 NL4-3 infected in human MT2 cells assessed as reduction in viral yield measured after 4 days by EnduRen live cell substrate based luciferase reporter gene assay

[15] = in vitro; conditions: human, Caco-2
Description: Apparent permeability across apical to basolateral side in human Caco2 cells at 2 uM

[16] = in vitro; conditions: human, Caco-2; remark: listed apart in the source
Description: Apparent permeability across basolateral to apical side in human Caco2 cells at 2 uM

[17] = physchem; conditions: phosphate buffer, pH 7.4
Description: Aqueous solubility of the compound in pH 7.4 phosphate buffer by RP-UPLC analysis

[18] = physchem; conditions: 30% CH3CN/phosphate buffer, pH 7.4
Description: Half life in pH 7.4 30%CH3CN/phosphate buffer at 50 mM by RP-UPLC analysis

[19] = in vitro; conditions: human, Caco-2; remark: listed apart in the source
Description: Efflux ratio of apparent permeability across basolateral to apical side over apical to basolateral side in human Caco2 cells

[20] = molecular target: Protease (Human immunodeficiency virus 1, UniProt Q9YQ12)
Sequence of Protease (Q9YQ12 whole entry): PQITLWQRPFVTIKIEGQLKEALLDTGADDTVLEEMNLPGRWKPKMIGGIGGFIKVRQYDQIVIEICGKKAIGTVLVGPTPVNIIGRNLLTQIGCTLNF
Description: Inhibition of HIV1 protease activity

[21] = Ratio of test compound to atazanavir aqueous solubility in pH 6.5 phosphate buffer by RP-UPLC analysis; type: physicochemical

Q: Which solubility [1] does the source give for `COC(=O)N[C@H](C(=O)N[C@@H](Cc1ccccc1)[C@H](CN(Cc1ccc(-c2ccccn2)cc1)NC(=O)[C@@H](NC(=O)OC)C(C)(C)C)OCOP(=O)([O-])[O-])C(C)(C)C.[Na+].[Na+]` here?
A: > 1060 µg/mL

Q: And the AUClast [2]?
A: 0.277 µM·h

Q: What about the t1/2 [3] of the same compound?
A: 0.35 h

Q: What about the Tmax [4] of the same compound?
A: 0.25 h

Q: And the half-life at 50000 µM [5]?
A: > 500 h

Q: What about the half-life at 50000 µM [6] of the same compound?
A: > 500 h

Q: What about the Drug metabolism [7] of the same compound?
A: Metabolite_Detected

Q: What about the solubility [8] of the same compound?
A: > 930 µg/mL

Q: And the half-life at 50000 µM [9]?
A: 1.95 h

Q: What about the Cmax [10] of the same compound?
A: 257 nM

Q: What about the half-life at 50000 µM [11] of the same compound?
A: 0.2 h

Q: What about the t1/2 [12] of the same compound?
A: > 0.167 h

Q: Which results are given for `COC(=O)N[C@H](C(=O)N[C@@H](Cc1ccccc1)[C@H](CN(Cc1ccc(-c2ccccn2)cc1)NC(=O)[C@@H](NC(=O)OC)C(C)(C)C)OP(=O)(O)O)C(C)(C)C`?
A: solubility [1]: > 2870 µg/mL; t1/2 [3]: > 2 h; half-life at 50000 µM [5]: 334 h; solubility [13]: > 2650 µg/mL; half-life at 50000 µM [6]: 250 h; Drug metabolism [7]: Metabolite_Notdetected; solubility [8]: 250 µg/mL (≈ 319 µM); half-life at 50000 µM [11]: 334 h; t1/2 [12]: > 2 h

Q: Which EC50 [14] does the source give for `COC(=O)N[C@H](C(=O)N[C@@H](Cc1ccccc1)[C@H](CN(Cc1ccc(-c2ccccn2)cc1)NC(=O)[C@@H](NC(=O)OC)C(C)(C)C)OC(=O)CN(C)C)C(C)(C)C` here?
A: 0.9 to 1250 nM

Q: And the Papp A→B at 2 µM [15]?
A: < 1.5 ×10⁻⁶ cm/s

Q: What about the Papp B→A at 2 µM [16] of the same compound?
A: 13.2 ×10⁻⁶ cm/s

Q: What about the solubility [17] of the same compound?
A: 360 µg/mL (≈ 456 µM)

Q: What about the AUClast [2] of the same compound?
A: 0.0457 µM·h

Q: And the Tmax [4]?
A: 0.3 h

Q: What about the half-life at 50000 µM [5] of the same compound?
A: > 500 h

Q: And the solubility [13]?
A: > 1400 µg/mL

Q: And the half-life at 50000 µM [18]?
A: 188 h

Q: And the solubility [8]?
A: > 1700 µg/mL

Q: And the Cmax [10]?
A: 66.8 nM

Q: And the half-life at 50000 µM [11]?
A: > 500 h

Q: And the efflux ratio [19]?
A: > 8.8

Q: And the IC50 [20]?
A: 4 to 1140 nM

Q: Which results are given for `COC(=O)N[C@H](C(=O)N[C@@H](Cc1ccccc1)[C@H](CN(Cc1ccc(-c2ccccn2)cc1)NC(=O)[C@@H](NC(=O)OC)C(C)(C)C)OC(=O)CN)C(C)(C)C`?
A: EC50 [14]: 0.9 to 1250 nM; solubility [17]: 960 µg/mL (≈ 1260 µM); AUClast [2]: 0.224 µM·h; Tmax [4]: 9 h; half-life at 50000 µM [5]: > 500 h; solubility [13]: > 1200 µg/mL; half-life at 50000 µM [18]: 39.1 h; solubility [8]: > 1600 µg/mL; Cmax [10]: 162 nM; half-life at 50000 µM [11]: > 500 h; IC50 [20]: 4 to 1140 nM

Q: Which solubility [17] does the source give for `COC(=O)N[C@H](C(=O)N[C@@H](Cc1ccccc1)[C@H](CN(Cc1ccc(-c2ccccn2)cc1)NC(=O)[C@@H](NC(=O)OC)C(C)(C)C)OC(=O)[C@@H](N)CCSC)C(C)(C)C` here?
A: 44 µg/mL (≈ 52.6 µM)

Q: And the AUClast [2]?
A: 0.053 µM·h

Q: And the Tmax [4]?
A: 0.83 h

Q: And the half-life at 50000 µM [5]?
A: > 500 h

Q: What about the solubility [13] of the same compound?
A: > 1630 µg/mL

Q: And the half-life at 50000 µM [18]?
A: 104 h

Q: What about the solubility [8] of the same compound?
A: > 1530 µg/mL

Q: And the Cmax [10]?
A: 37 nM

Q: And the half-life at 50000 µM [11]?
A: > 500 h

Q: For `COC(=O)N[C@H](C(=O)N[C@@H](Cc1ccccc1)[C@H](CN(Cc1ccc(-c2ccccn2)cc1)NC(=O)[C@@H](NC(=O)OC)C(C)(C)C)OC(=O)[C@@H](N)Cc1ccc(O)cc1)C(C)(C)C`, which Papp A→B at 2 µM [15] is on record?
A: < 1.5 ×10⁻⁶ cm/s

Q: What about the Papp B→A at 2 µM [16] of the same compound?
A: 7.1 ×10⁻⁶ cm/s

Q: And the solubility [17]?
A: 9 µg/mL (≈ 10.4 µM)

Q: What about the AUClast [2] of the same compound?
A: 0.103 µM·h

Q: And the Tmax [4]?
A: 0.4 h

Q: And the half-life at 50000 µM [5]?
A: 376 h

Q: And the solubility [13]?
A: > 980 µg/mL

Q: What about the half-life at 50000 µM [18] of the same compound?
A: 215 h

Q: And the solubility [8]?
A: > 1420 µg/mL

Q: What about the Cmax [10] of the same compound?
A: 99 nM

Q: And the half-life at 50000 µM [11]?
A: > 500 h

Q: What about the efflux ratio [19] of the same compound?
A: > 4.7

Q: Which results are given for `COC(=O)N[C@H](C(=O)N[C@@H](Cc1ccccc1)[C@H](CN(Cc1ccc(-c2ccccn2)cc1)NC(=O)[C@@H](NC(=O)OC)C(C)(C)C)OC(=O)CNC(=O)[C@H](N)Cc1ccccc1)C(C)(C)C`?
A: solubility [1]: 230 µg/mL (≈ 253 µM); AUClast [2]: 0.307 µM·h; Tmax [4]: 0.5 h; half-life at 50000 µM [5]: > 500 h; solubility [13]: > 2100 µg/mL; half-life at 50000 µM [6]: 88.5 h; solubility [8]: > 2300 µg/mL; Cmax [10]: 51 nM; half-life at 50000 µM [11]: > 500 h; Ratio [21]: > 200

Q: For `COC(=O)N[C@H](C(=O)N[C@@H](Cc1ccccc1)[C@H](CN(Cc1ccc(-c2ccccn2)cc1)NC(=O)[C@@H](NC(=O)OC)C(C)(C)C)OC(=O)CNCc1ccccc1)C(C)(C)C`, which Papp A→B at 2 µM [15] is on record?
A: < 1.5 ×10⁻⁶ cm/s

Q: What about the Papp B→A at 2 µM [16] of the same compound?
A: 9.6 ×10⁻⁶ cm/s

Q: What about the solubility [1] of the same compound?
A: < 1 µg/mL

Q: And the AUClast [2]?
A: 0.1 µM·h

Q: And the Tmax [4]?
A: 0.6 h

Q: And the half-life at 50000 µM [5]?
A: > 500 h

Q: And the solubility [13]?
A: > 990 µg/mL

Q: What about the half-life at 50000 µM [6] of the same compound?
A: 334 h

Q: What about the solubility [8] of the same compound?
A: > 710 µg/mL

Q: And the Cmax [10]?
A: 55 nM

Q: What about the half-life at 50000 µM [11] of the same compound?
A: > 500 h

Q: What about the efflux ratio [19] of the same compound?
A: > 6.4
